Test results from patent US8021661B2, “Cripto binding molecules” (Biogen Idec MA Inc., priority 2005, dated 2011).

Experiments:
NCCIT xenograft tumors = test: Established NCCIT human testicular carcinoma xenografts; assay type: in vivo, athymic nude mice; conditions: cis-platinum 2 mg/kg/injection SC 3×/wk×6; Day 20 to Day 66
Method: Treatments were initiated on Day 15 when the tumors reached a minimum change in size of 100 mg.
One hundred fifty (150) male athymic nude mice (Harlan Sprague Dawley, Madison, Wis.) were started on the study at seven to eight weeks of age. Animals were acclimated to the laboratory for at least five days prior to implantation of the tumor. Housing was in ventilated cage racks, and food and water were allowed ad libitum.
NCCIT cells were obtained from the American Tissue Type Collection (Manassas, Va.). The cell line was passed in vitro 4 times prior to implantation. Cells were grown in vitro in RPMI-1640+10% fetal bovine serum (FBS) media without antibiotics (5% CO2).
An inoculum of 5×10^6 NCCIT cells in 200 L RPMI-1640 without serum (25%) plus Matrigel (75%) was implanted SC into the right flank area on Day 0. Tumor size and body weight measurements were recorded at least twice weekly beginning on Day 6. On Day 15, mice with tumors with a minimum increase in tumor weight of 100 mg and a maximum increase of 244 mg, excluding tumors with non-progressive growth, were randomized to treatment and control groups (see Table 12). […]
Tumor measurements were determined using digital calipers. Body weights and tumor size measurements were recorded on Day 6 and were continued at least twice weekly until the termination of the study. […]

Calu-6 xenograft tumors = test: Established Calu-6 human lung xenografts; assay type: in vivo, athymic nude mice; conditions: irinotecan 10 mg/kg on Day 13-14, 17-21, 24-26; Day 20 until Day 45
Method: One hundred sixty (160) female athymic nude mice (Harlan Sprague Dawley, Madison, Wis.) were started on the study at eight to nine weeks of age. Animals were acclimated to the laboratory for at least five days prior to implantation of the tumor. Housing was in ventilated cage racks, and food and water were allowed ad libitum.
Calu-6 cells were obtained from the American Tissue Type Collection (Manassas, Va.). The cell line was passed in vitro 11 times prior to implantation. Cells were grown in vitro in RPMI-1640+10% fetal bovine serum (FBS) media without antibiotics (5% CO2). Bacterial cultures were performed on aliquots of the tumor homogenate preparation that was implanted into the mice.
On Day −1, the mice were implanted SC with BioMedics animal ID chips (Model IMI-1000; Seaford, Del.) subcutaneously on the left flank. An inoculum of 5×10^6 Calu-6 cells in 200 μL RPMI-1640 without serum was implanted SC into the right flank area on Day 0. Tumor size and body weight measurements were recorded at least twice weekly beginning on Day 4. When the tumors measured a minimum of 100 mg, the mice were randomized to treatment and control groups (see Table 13). […]
Tumor measurements were determined using digital calipers. Body weights and tumor size measurements were recorded on Day 4 and were continued twice weekly until the termination of the study. […]

BT-474 xenograft tumors = test: Established BT-474 human breast tumor xenografts, full-length B3F6.1-DM4; assay type: in vivo, athymic nude mice; conditions: Taxol 25 mg/kg IP q4d×3 starting Day 15
Source text: One hundred forty (140) female athymic nude mice (Harlan Sprague Dawley, Madison, Wis.) were started on the study at ten weeks of age. Animals were acclimated to the laboratory for at least five days prior to implantation of the tumor. Housing was in ventilated cage racks, and food and water were allowed ad libitum.
BT-474 tumors were obtained from cryopreserved solid tumor fragments from a serially passaged in vivo donor line established at Biogen Idec (cryo reg #0141, established originally from cells obtained from the […] (Manassas, Va.)). Tumor fragments were removed from cryopreservation and serially passaged SC in vivo for 3 generations in female athymic nude mice prior to implantation for this study. […]
On Day −1, the mice were implanted with BioMedics animal ID chips (Model IMI-1000; Seaford, Del.) SC on the left flank. […] Tumor size and body weight measurements were recorded at least twice weekly beginning on Day 5. When the tumors measured a minimum of 100 mg (Day 15), mice were randomized to treatment and control groups (see Table 10) based on tumor size and excluding tumors with non-progressive growth. […]
Tumor measurements were determined using digital calipers. Body weights and tumor size measurements were recorded on Day 0 and were continued twice weekly until the termination of the study. […]

[1] = Size exclusion chromatography of purified antibody; assay type: physicochemical; conditions: purified using only the Protein G column
Method: Antibody was produced and purified using methods described in Example 4 above. […] Reduced and non-reduced purified protein samples were analyzed by SDS-PAGE electrophoresis. Under non-reducing conditions, Form A is expected to migrate as a single 120 kDa homodimer and Form B as a 60 kDa doublet.
Reduced and non-reduced purified protein samples were analyzed by SDS-PAGE electrophoresis. Under these conditions, Form A is expected to migrate as a single 120 kDa homodimer and Form B as a 60 kDa doublet.

## N.N.[Cl][Pt][Cl] [Cis-platinum, cisplatin]
NCCIT xenograft tumors
  inhibition of tumor growth: significant inhibition (P<0.05) of tumor growth from Day 20 to Day 66

## CCc1c2c(nc3ccc(OC(=O)N4CCC(N5CCCCC5)CC4)cc13)-c1cc3c(c(=O)n1C2)COC(=O)[C@]3(O)CC [Irinotecan, irinotecan]
Calu-6 xenograft tumors
  inhibition of tumor growth: significant (P<0.001) inhibition of tumor growth

## CC(=O)O[C@H]1C(=O)[C@@]2(C)[C@H]([C@H](OC(=O)c3ccccc3)[C@]3(O)C[C@H](OC(=O)[C@H](O)[C@@H](NC(=O)c4ccccc4)c4ccccc4)C(C)=C1C3(C)C)[C@]1(OC(C)=O)CO[C@@H]1C[C@@H]2O [Taxol, paclitaxel]
BT-474 xenograft tumors
  inhibition of tumor growth: significant (P<0.05) inhibition of tumor growth from Day 26 to Day 50

B1: chimeric dd-B3F6: CH2 domain-deleted chimeric B3F6 with connecting peptide SEQ ID NO: 5; heavy chain SEQ ID NO: 3, light chain SEQ ID NO: 4 (antibody)
heavy: QVQLQQVGAELVKPGASVKLSCKASGYTFTSYWIHWVKQRPGQGLEWIGENDPSNGRTNYNEKFKNKATLTVDKSSSTAYMHLSSLTSEDSAVYYCSRGPNYFYSMDYWGQGTSVTVSSASTKGPSVFPLAPSSKSTSGGTAALGCLVKDYFPEPVTVSWNSGALTSGVHTFPAVLQSSGLYSLSSVVTVPSSSLGTQTYICNVNHKPSNTKVDKKVEPKSCDKTHTCPPCPEPKSCDTPPPCPRCPAPGGGSSGGGSGGQPREPQVYTLPPSRDELTKNQVSLTCLVKGFYPSDIAVEWESNGQPENNYKTTPPVLDSDGSFFLYSKLTVDKSRWQQGNVFSCSVMHEALHNHYTQKSLSLSPG
light: DFLMTQTPLSLPVSLGDQASISCRSSQSIVHSNGNTYLEWYLQKPGQSPKLLIYKVSNRFSGVPDRFSGSGSGTDFTLKISRVEAEDLGVYYCFQGSHVPLTFGAGTKLELKRTVAAPSVFIFPPSDEQLKSGTASVVCLLNNFYPREAKVQWKVDNALQSGNSQESVTEQDSKDSTYSLSSTLTLSKADYEKHKVYACEVTHQGLSSPVTKSFNRGEC
[1]
  monomer (size exclusion chromatography): 93-98%
